Patent publication US10570129B2 (Zoetis Services LLC, priority 2015, dated 2020)

Tests used:
[1] = test system: Haemonchus contortus L3; assay: microbe, parasite or virus in culture; type: cell-based; conditions: Haemonchus contortus, 96 h, read-out: HcL3 Minimal Effective Concentration (MEC)
[2] = test system: D. immitis microfilariae; assay: Dirofilaria immitis, microfilariae (DiMF) in vitro motility assay; type: cell-based; conditions: Dirofilaria immitis, 72 h, read-out: DiMF minimally effective dose (MEC)

Structure (SMILES) | minimal effective concentration [1] | minimal effective concentration [2]
N#Cc1ccc2c3c(n(C(=O)NCc4ccnc(Cl)c4)c2c1)CCN(C/C=C/c1ccc(Br)c(F)c1F)C3 [Example 14, (E)-2-(3-(4-bromo-2,3-difluorophenyl)allyl)-N-((2-chloropyridin-4-yl)methyl)-7-cyano-1,2,3,4-tetrahydro-5H-pyrido[4,3-b]indole-5-carboxamide] | 0.5 µM | > 100 µM
O=C(NCc1ccnc(Cl)c1)n1c2c(c3c(OC(F)(F)F)cccc31)CN(C/C=C/c1ccc(Cl)cc1)CC2 [Example 354, (E)-2-(3-(4-chlorophenyl)allyl)-N-((2-chloropyridin-4-yl)methyl)-9-(trifluoromethoxy)-1,2,3,4-tetrahydro-5H-pyrido[4,3-b]indole-5-carboxamide] | 57.4 µM | 18.2 µM
O=C(NCc1ccnc(Cl)c1)n1c2c(c3c(OC(F)(F)F)cccc31)CN(C/C=C/c1ccc(C(F)(F)F)cn1)CC2 [Example 343, (E)-N-((2-chloropyridin-4-yl)methyl)-9-(trifluoromethoxy)-2-(3-(5-(trifluoromethyl)pyridin-2-yl)allyl)-1,2,3,4-tetrahydro-5H-pyrido[4,3-b]indole-5-carboxamide] | 33 µM | 3.3 µM
O=C(NCc1ccnc(Cl)c1)n1c2c(c3cc(Cl)ccc31)CN(C/C=C/c1ccc(F)cc1Cl)CC2 [Example 237, (E)-8-chloro-2-(3-(2-chloro-4-fluorophenyl)allyl)-N-((2-chloropyridin-4-yl)methyl)-1,2,3,4-tetrahydro-5H-pyrido[4,3-b]indole-5-carboxamide] | 0.03 µM | 1.8 µM
O=C(NCc1ccnc(F)c1)n1c2c(c3cc(C(F)(F)F)ccc31)CN(C/C=C/c1ccc(Cl)c(F)c1)CC2 [Example 415, (E)-2-(3-(4-chloro-3-fluorophenyl)allyl)-N-((2-fluoropyridin-4-yl)methyl)-8-(trifluoromethyl)-1,2,3,4-tetrahydro-5H-pyrido[4,3-b]indole-5-carboxamide] | 2.7 µM | 12.4 µM
N#Cc1ccc2c(c1)c1c(n2C(=O)NCc2ccnc(F)c2)CCN(C/C=C/c2ccc(Cl)cc2F)C1 [Example 104, (E)-2-(3-(4-chloro-2-fluorophenyl)allyl)-8-cyano-N-((2-fluoropyridin-4-yl)methyl)-1,2,3,4-tetrahydro-5H-pyrido[4,3-b]indole-5-carboxamide] | 0.1 µM | 3.2 µM
O=C(NCc1ccnc(F)c1)n1c2c(c3cc(-c4ccc(Cl)cc4)ccc31)CN(C/C=C/c1ccc(Cl)cc1)CC2 [Example 461, (E)-8-(4-chlorophenyl)-2-(3-(4-chlorophenyl)allyl)-N-((2-fluoropyridin-4-yl)methyl)-1,2,3,4-tetrahydro-5H-pyrido[4,3-b]indole-5-carboxamide] | 33 µM | > 100 µM
N#Cc1ccc(/C=C/CN2CCc3c(c4ccc(OC(F)(F)F)cc4n3C(=O)NCc3ccnc(F)c3)C2)cc1F [Example 372, (E)-2-(3-(4-cyano-3-fluorophenyl)allyl)-N-((2-fluoropyridin-4-yl)methyl)-7-(trifluoromethoxy)-1,2,3,4-tetrahydro-5H-pyrido[4,3-b]indole-5-carboxamide] | 0.5 µM | 5.7 µM
O=C(NCc1ccnc(Cl)c1)n1c2c(c3cc(N4CCCC4)ccc31)CN(C/C=C/c1ccc(Cl)c(F)c1)CC2 [Example 506, (E)-2-(3-(4-chloro-3-fluorophenyl)allyl)-N-((2-chloropyridin-4-yl)methyl)-8-(pyrrolidin-1-yl)-1,2,3,4-tetrahydro-5H-pyrido[4,3-b]indole-5-carboxamide] | 7.6 µM | > 100 µM
CCOc1ccc2c(c1)c1c(n2C(=O)NCc2ccnc(Cl)c2)CCN(C/C=C/c2ccc(F)cc2)C1 [Example 514, (E)-N-((2-chloropyridin-4-yl)methyl)-8-ethoxy-2-(3-(4-fluorophenyl)allyl)-1,2,3,4-tetrahydro-5H-pyrido[4,3-b]indole-5-carboxamide] | 5.7 µM | 5.7 µM
O=C(NCc1ccnc(Cl)c1)n1c2c(c3cc(C(F)(F)F)ccc31)CN(C/C=C/c1ccc(F)c(F)c1)CC2 [Example 414, (E)-N-((2-chloropyridin-4-yl)methyl)-2-(3-(3,4-difluorophenyl)allyl)-8-(trifluoromethyl)-1,2,3,4-tetrahydro-5H-pyrido[4,3-b]indole-5-carboxamide] | 1 µM | 10 µM
O=C(NCc1cnc(Cl)s1)n1c2c(c3c(OC(F)(F)F)cccc31)CN(C/C=C/c1ccc(Cl)cc1)CC2 [Example 383, (E)-2-(3-(4-chlorophenyl)allyl)-N-((2-chlorothiazol-5-yl)methyl)-9-(trifluoromethoxy)-1,2,3,4-tetrahydro-5H-pyrido[4,3-b]indole-5-carboxamide] | > 100 µM | 5.7 µM
N#Cc1ccc(/C=C/CN2CCc3c(c4ccc(OC(F)(F)F)cc4n3C(=O)NCc3ccnc(Cl)c3)C2)cc1 [Example 351, (E)-N-((2-chloropyridin-4-yl)methyl)-2-(3-(4-cyanophenyl)allyl)-7-(trifluoromethoxy)-1,2,3,4-tetrahydro-5H-pyrido[4,3-b]indole-5-carboxamide] | 0.7 µM | 32.3 µM
O=C(NCc1ccnc(Cl)c1)n1c2c(c3c(OC(F)(F)F)cccc31)CN(C/C=C/c1ccc(C(F)(F)F)cc1)CC2 [Example 363, (E)-N-((2-chloropyridin-4-yl)methyl)-9-(trifluoromethoxy)-2-(3-(4-(trifluoro-methyl)phenyl)allyl)-1,2,3,4-tetrahydro-5H-pyrido[4,3-b]indole-5-carboxamide] | > 100 µM | 33 µM
O=C(NCc1ccc(F)cc1)n1c2c(c3cc(F)ccc31)CN(C/C=C/c1ccc(Cl)cc1)CC2 [Example 170, (E)-2-(3-(4-chlorophenyl)allyl)-8-fluoro-N-(4-fluorobenzyl)-1,2,3,4-tetrahydro-5H-pyrido[4,3-b]indole-5-carboxamide] | > 100 µM | 1 µM
N#Cc1ccc(/C=C/CN2CCc3c(c4cc(OC(F)(F)F)ccc4n3C(=O)NCc3ccnc(Cl)c3)C2)cc1F [Example 386, (E)-N-((2-chloropyridin-4-yl)methyl)-2-(3-(4-cyano-3-fluorophenyl)allyl)-8-(trifluoromethoxy)-1,2,3,4-tetrahydro-5H-pyrido[4,3-b]indole-5-carboxamide] | 0.2 µM | 3.3 µM
NC(=O)c1ccc2c3c(n(C(=O)NCc4ccnc(Cl)c4)c2c1)CCN(C/C=C/c1ccc(Cl)cc1)C3 [Example 464, (E)-2-(3-(4-chlorophenyl)allyl)-N^5-((2-chloropyridin-4-yl)methyl)-1,2,3,4-tetrahydro-5H-pyrido[4,3-b]indole-5,7-dicarboxamide] | 3.3 µM | 7.6 µM
Cc1ccc2c(c1)c1c(n2C(=O)NCc2ccnc(Cl)c2)CCN(C/C=C/c2ccc(C(F)(F)F)cc2)C1 [Example 435, (E)-N-((2-chloropyridin-4-yl)methyl)-8-methyl-2-(3-(4-(trifluoromethyl)-phenyl)allyl)-1,2,3,4-tetrahydro-5H-pyrido[4,3-b]indole-5-carboxamide] | 5.7 µM | 5.7 µM
